The numbers were not newly measured in patent US8580245B2, “Compositions and methods for treating and preventing cardiomyopathy and heart disease” (The Regents of the University of Michigan, priority 2005, dated 2013), which cites them from elsewhere.

The data set has as its system elderly men with isolated diastolic dysfunction. The settings on record: verapamil vs placebo, 20 elderly men, p<0.05.

As to `COc1ccc(CCN(C)CCCC(C#N)(c2ccc(OC)c(OC)c2)C(C)C)cc1OC` (stereo not shown) [verapamil], the exercise time increase is listed as 33%, the heart rate decrease is 10%, the “peak left ventricular filling rate increase” value is listed as 30% and the symptoms result is recorded as “improved”.
